{"source": "paper PMC7467712", "about": "“Physical Mechanisms Governing Substituent Effects on Arene–Arene Interactions in a Protein Milieu” (The Journal of Physical Chemistry. B, 2020)", "origin": "cited, not measured here", "data": [{"test_system": "Mus musculus AChE", "set-up": "method as in PMID 23984975", "details": "95% confidence interval within parentheses, at least four replicates", "units": {"IC50": "µM"}, "values": [{"smiles": "CCN(CC)CCNS(=O)(=O)Cc1ccc(C(F)(F)F)cc1", "note": "[AL037]", "IC50": 12}, {"smiles": "CCN(CC)CCNS(=O)(=O)Cc1ccccc1", "note": "[AL029]", "IC50": 139}, {"smiles": "CCN(CC)CCNS(=O)(=O)Cc1ccc(Cl)cc1", "note": "[AL011]", "IC50": 12}, {"smiles": "CCN(CC)CCNS(=O)(=O)c1cccc(C(F)(F)F)c1", "note": "[AL040]", "IC50": 22}, {"smiles": "CCN(CC)CCNS(=O)(=O)c1cccc(OC)c1", "note": "[AL041]", "IC50": 7}, {"smiles": "CCN(CC)CCNS(=O)(=O)Cc1ccc(F)cc1", "note": "[AL036]", "IC50": 40}]}]}
